These results are taken from PubChem BioAssay (NCI).

Structures are written as SMILES.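 Tested at 5 concentrations; 48 h exposure; 96-well plates; endpoints linearly interpolated, else capped at highest concentration. At the GI50, growth is halved. TGI is the concentration that stops growth completely.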 A value given as a limit tells only on which side of the number the result lay.

Test systems include HOP-62 NSCLC; HCC-2998 colon; A498 renal; MOLT-4 leukemia; SNB-75 CNS; CAKI-1 renal; IGROV1 ovarian; UACC-62 melanoma; T-47D breast; BT-549 breast.
Test in all cases: NCI anticancer screen, dose series, 48 h

In the case of `C=C1C(=O)O[C@H]2[C@H]1CC/C(COC(=O)NCCCCCCCCNC(=O)OC/C1=C/CC[C@@]3(C)O[C@H]3[C@H]3OC(=O)C(=C)[C@@H]3CC1)=C\CC[C@@]1(C)O[C@@H]21`, the GI50 in the assay on HOP-62 NSCLC was 1.53 µM; in the assay with HCC-2998 colon it was 1.2 µM; in the assay with A498 renal, 1.69 µM; in the assay on MOLT-4 leukemia, 0.33 µM; with SNB-75 CNS it was 1.25 µM; in the assay with CAKI-1 renal it was 0.657 µM. Besides, the GI50 is 1.01 µM in the assay with IGROV1 ovarian, 0.197 µM in the assay on UACC-62 melanoma, 0.323 µM in the assay on T-47D breast and 0.257 µM with BT-549 breast. Moreover, the TGI came to 3.49 µM in the assay with HOP-62 NSCLC; 2.52 µM in the assay with HCC-2998 colon; 3.14 µM in the assay with A498 renal; 1.18 µM with MOLT-4 leukemia; 3.5 µM in the assay with SNB-75 CNS; 2.02 µM in the assay on CAKI-1 renal. Also, the TGI is 2.61 µM in the assay on IGROV1 ovarian, 0.488 µM in the assay with UACC-62 melanoma, 0.915 µM with T-47D breast and 0.748 µM in the assay on BT-549 breast.

Turning to `Cc1cc(=O)oc2cc(OC/C=C3\CCC(=O)O3)ccc12`, the GI50 in the assay with HOP-62 NSCLC is 21.6 µM; with HCC-2998 colon, 16 µM; in the assay on A498 renal, 28.7 µM; in the assay on SNB-75 CNS, 16.8 µM; in the assay on CAKI-1 renal, 7.59 µM; in the assay on IGROV1 ovarian, 13.2 µM. The GI50 was 13.8 µM in the assay with UACC-62 melanoma, 14.3 µM in the assay on T-47D breast and 15.8 µM in the assay on BT-549 breast. Further, the TGI in the assay with HOP-62 NSCLC worked out at 58 µM; with HCC-2998 colon it was 31.4 µM; with A498 renal, 79.4 µM; in the assay on MOLT-4 leukemia it was 0.011 µM; in the assay on SNB-75 CNS, 40.1 µM; in the assay on CAKI-1 renal it was 26.8 µM. Besides, the TGI was 28.7 µM with IGROV1 ovarian, 28.7 µM with UACC-62 melanoma, 35.3 µM with T-47D breast and 40 µM with BT-549 breast.

Consider `COc1ccc2c(c1)C(=O)c1c-2c(Nc2cccc(C(C)=O)c2)nc2ccccc12`, for which the GI50 in the assay with HOP-62 NSCLC was 0.727 µM; with HCC-2998 colon it was 16.1 µM; with A498 renal, 3.09 µM; with MOLT-4 leukemia, 64.6 µM; in the assay with SNB-75 CNS, 5.55 µM; in the assay on CAKI-1 renal, 20.3 µM. The GI50 in the assay with IGROV1 ovarian was 3.67 µM; with UACC-62 melanoma it was 11.6 µM; in the assay on T-47D breast, 13.6 µM; with BT-549 breast it was 9.68 µM. Besides, the TGI in the assay with HOP-62 NSCLC was 2.49 µM; in the assay on HCC-2998 colon it was 91.4 µM; in the assay with A498 renal it was 15 µM; in the assay with MOLT-4 leukemia, more than 100 µM; in the assay on SNB-75 CNS it was 20.5 µM; in the assay on CAKI-1 renal, 43.6 µM. In addition, the TGI in the assay with IGROV1 ovarian is 18.4 µM; in the assay on UACC-62 melanoma it was 27.7 µM; in the assay with T-47D breast, 55.2 µM; with BT-549 breast, 21.4 µM.

With `O=C1C=CC2(C=C1)C[C@H](NC(=O)OCc1ccccc1)C(=O)O2`, the TGI in the assay with HOP-62 NSCLC is more than 69.2 µM; in the assay on HCC-2998 colon, 40.8 µM; in the assay on A498 renal, more than 100 µM; with MOLT-4 leukemia it was 15.3 µM; in the assay with SNB-75 CNS, 61.4 µM; with CAKI-1 renal, 34.8 µM. The TGI in the assay on IGROV1 ovarian was 38.1 µM; with UACC-62 melanoma it was 31.9 µM; in the assay with T-47D breast, 49.9 µM; in the assay with BT-549 breast it was 32.7 µM.

As for `Cc1ccc(S(=O)(=O)Nc2ccc(-c3cc(-c4cccc(F)c4)c(C#N)c(N)n3)cc2)cc1`, the GI50 was 4.25 µM in the assay on HOP-62 NSCLC; 1.72 µM with HCC-2998 colon; 3.7 µM in the assay with A498 renal; 3.2 µM with MOLT-4 leukemia; 1.6 µM with CAKI-1 renal; 1.35 µM in the assay with IGROV1 ovarian. Besides, the GI50 is 1.52 µM in the assay with UACC-62 melanoma, 1.48 µM in the assay on T-47D breast and 1.35 µM in the assay with BT-549 breast. The TGI was determined as 17.2 µM with HOP-62 NSCLC; 3.28 µM in the assay with HCC-2998 colon; 16.2 µM in the assay on A498 renal; 30.2 µM in the assay with MOLT-4 leukemia; 3.16 µM in the assay with CAKI-1 renal; 2.75 µM with IGROV1 ovarian. The TGI in the assay with UACC-62 melanoma was 3.44 µM; in the assay with T-47D breast, 3.66 µM; in the assay on BT-549 breast it was 2.78 µM.

Take `COc1ccc(OC)c(/C=C/c2nc(SCc3ccccc3)n(-c3ccc(Cl)cc3)n2)c1`: the GI50 was 9.57 µM in the assay with HOP-62 NSCLC; 8.24 µM in the assay on HCC-2998 colon; 4.54 µM with A498 renal; 6.51 µM with MOLT-4 leukemia; 3.92 µM in the assay with SNB-75 CNS; 2.09 µM in the assay with CAKI-1 renal. Further, the GI50 was 13.1 µM with IGROV1 ovarian, 6.15 µM in the assay with UACC-62 melanoma, 11.5 µM in the assay with T-47D breast and 11.6 µM in the assay on BT-549 breast. The TGI in the assay with HOP-62 NSCLC is more than 100 µM; with HCC-2998 colon, more than 100 µM; in the assay with A498 renal it was 88.4 µM; with MOLT-4 leukemia it was more than 100 µM; with SNB-75 CNS, more than 100 µM; with CAKI-1 renal it was 5.28 µM. Also, the TGI in the assay with IGROV1 ovarian is more than 100 µM; in the assay with UACC-62 melanoma, more than 100 µM; with T-47D breast, 84.6 µM; in the assay on BT-549 breast, 38.5 µM.

As for `COCCn1cc(-c2csc(-c3c[nH]c4ccc(Br)cc34)n2)c2cccnc21`, the GI50 is 7.98 µM with HOP-62 NSCLC; 3.8 µM with HCC-2998 colon; 3.02 µM with A498 renal; 3.87 µM in the assay on MOLT-4 leukemia; 4.72 µM in the assay with SNB-75 CNS; 5.21 µM with CAKI-1 renal. The GI50 in the assay with IGROV1 ovarian is 4.06 µM; in the assay on UACC-62 melanoma it was 4.2 µM; in the assay with T-47D breast, 1.97 µM; in the assay with BT-549 breast it was 4.8 µM. The TGI was 47.7 µM with HOP-62 NSCLC; more than 100 µM with HCC-2998 colon; 15.9 µM in the assay with A498 renal; more than 100 µM with MOLT-4 leukemia; 29.4 µM with SNB-75 CNS; more than 100 µM with CAKI-1 renal. The TGI with IGROV1 ovarian is more than 100 µM; in the assay with UACC-62 melanoma, more than 100 µM; in the assay with T-47D breast, 21 µM; in the assay with BT-549 breast, 27 µM.

With `O=C(O)CCC(C(=O)O)N1C(=O)C2C3CCC(C3)C2C1=O` (stereo unspecified), the TGI in the assay on HOP-62 NSCLC, with A498 renal, with MOLT-4 leukemia, in the assay on SNB-75 CNS, with CAKI-1 renal and in the assay with IGROV1 ovarian was more than 100 µM in each case. The TGI in the assay on UACC-62 melanoma, in the assay on T-47D breast and with BT-549 breast was more than 100 µM throughout.
